Laboratory results taken from publication PMC7579906, “Discovery of a dual inhibitor of NQO1 and GSTP1 for treating glioblastoma” (Journal of Hematology & Oncology, 2020).

Key:
U87MG cells = assay: Cell proliferation (MTT) assay, parental U87MG; type: cell-based; details: Homo sapiens, U-87 MG, inhibition of cell proliferation/viability
Protocol: (§1) The human glioblastoma cell line U87MG was stably transfected with vector control, pLHCX-EGFRvIII, pGFP-NQO1 and pRS-GSTP1, which were supplemented with various antibiotics. For EGFRvIII, 150 μg/mL of hygromycin was used; for pGFP-NQO1 and pRS-GSTP1, 0.7 μg/mL of puromycin was employed. The cells were supplemented with 10% fetal bovine serum (Hyclone, USA), penicillin (100 U/ml) and streptomycin (100 U/ml) (ABAM Life Technologies, USA) in a humidified incubator with 5% CO2 at 37 °C.
(§2) In vitro assessment was implemented for cell proliferation using the 3-(4, 5- dimethylthiazol- 2-yl)-2,5-diphenyltetrazolium bromide (MTT) assay. After different treatments with specific time periods, 10 μL of MTT (5 mg/mL in PBS, Sigma, USA) was added to each well and the plates were incubated for 3 h at 37 °C. The resulting formazan product was dissolved with DMSO. The absorbance at a wavelength of 490 nm was recorded using a microplate reader (BioTek Instruments Inc., USA).

U87MG/EGFRvIII cells = assay: Cell proliferation (MTT) assay, U87MG/EGFRvIII; type: cell-based, human; details: Homo sapiens, U-87 MG; inhibition of cell proliferation/viability; MNPC treated 72 h
Protocol: as §1, §2

SMILES: O=C(Nc1ncc([N+](=O)[O-])s1)c1ccccc1O [TIZ, tizoxanide, reference compound]
- IC50 (U87MG cells): 82.9 µM
- IC50 (U87MG/EGFRvIII cells): 22.4 µM

SMILES: Cc1ccc(C)c(-c2csc(NC(=O)c3ccc(-c4ccccc4)cc3)n2)c1 [Compound 21]
- IC50 (U87MG cells): 16.6 µM
- IC50 (U87MG/EGFRvIII cells): 1.67 µM

SMILES: CCc1cc(C(=O)Nc2nc(-c3ccc(C)c(C)c3)c(C)s2)cs1 [Compound 23]
- IC50 (U87MG cells): 29.1 µM
- IC50 (U87MG/EGFRvIII cells): 2.22 µM

SMILES: CC(=O)Oc1ccccc1C(=O)Nc1ncc([N+](=O)[O-])s1 [NTZ, nitazoxanide, reference compound]
- IC50 (U87MG cells): 66.7 µM
- IC50 (U87MG/EGFRvIII cells): 19.4 µM

SMILES: Cc1ccc(C(=O)Nc2nc(-c3ccccc3)c(C)s2)cc1 [Compound 22]
- IC50 (U87MG cells): 11.2 µM
- IC50 (U87MG/EGFRvIII cells): 2.42 µM

SMILES: Cc1ccc(-c2csc(NC(=O)c3cccc4ccccc34)n2)c(C)c1 [Compound 24]
- IC50 (U87MG cells): 24.5 µM
- IC50 (U87MG/EGFRvIII cells): 1.34 µM
